Read-outs that look alike come from different tables or passages of the source.
Legend:
[1] = Stability Test-1: coloration of 1% aqueous solutions adjusted to pH 7 stored at 50° C.; type: physicochemical; conditions: 1% aqueous solution pH 7, 50° C., 10 panelists
Method: (§1) For each of the samples of Synthesis Examples 1 to 6, 1% aqueous solutions were adjusted to pH 3, 5, 7, 8, and 9 with a dilute potassium hydroxide aqueous solution, and then placed in 50 mL screw tubes and sealed. […] Furthermore, the odor and coloration of the samples adjusted to pH 7 were evaluated based on the following methods and criteria, and the results are shown in Table 11.
• Evaluation was made by 10 panelists according to the following criteria. • 3: Almost no change compared to immediately after preparation. • 2: Color changes compared to immediately after preparation. • 1: Strongly colored compared to immediately after preparation. • Based on the results of the above evaluation, the following classification was made: […]

[2] = Stability Test-1: residual rate of 1% aqueous solutions stored at 50° C. (HPLC); type: physicochemical; conditions: water; for remaining at 672 h: after 4 weeks
Method: as §1
• ⊚: 80% or more • ◯: 50% or more, less than 80% • Δ: 30% or more, less than 50% • x: Less than 30%

[3] = Stability Test-1: odor of 1% aqueous solutions adjusted to pH 7 stored at 50° C.; type: physicochemical; conditions: 1% aqueous solution pH 7, 50° C., 10 panelists
Method: as §1
(§2) • Evaluation was made by 10 panelists according to the following criteria. • 3: Almost odorless. • 2: There is a slight strange odor. • 1: A strong odor is detected. • Based on the results of the above evaluation, the following classification was made: • ◯: Total score of 10 panelists is 25 or more • Δ: Total score of 10 panelists is 16-24 • x: The total score of 10 panelists is 15 or less

[4] = test system: Normal human dermal fibroblasts (NHDF); assay: Hyaluronic acid production promoting effect (ELISA of hyaluronic acid in supernatant); type: cell-based; conditions: 10 mM or less, 48 hours, control group set to 100%, N=3
Method: Normal human dermal fibroblasts (NHDF) were prepared in D-MEM containing 5% (v/v) fetal bovine serum to a cell density of 2.5×10^4 cells/well, and then pre-incubated on a 96-well plate for 24 hours. After removing the medium, samples prepared in serum-free D-MEM were added to each well and cultured for 48 hours. After the culture was completed, the amount of hyaluronic acid in the supernatant was quantified by ELISA. Measurements were performed in triplicate (N=3).
The amount of hyaluronic acid produced when the sample was measured at a concentration of 10 mM or less was compared with that of the control group, and the results (% values when the control group is set to 100%) are shown in Tables 18 to 20 based on the following criteria.

[5] = Stability Test-2: residual rate in cream of pH 7 or 9 stored at 50° C.; type: physicochemical
Method: (§3) For each of the samples of Synthesis Examples 9 to 32, (a) and (b) shown in Table 12 were each heated and mixed. After cooling, (c) shown in Table 12 was added to prepare a cream with a pH of 7 or 9. […] The odor and coloration were also evaluated according to the same method and criteria as in Test Example 1. The results regarding the residual rate are shown in Tables 13 and 14, and the results regarding the odor and coloration are shown in Tables 15 and 16.

[6] = Stability Test-2: odor of cream stored at 50° C.; type: physicochemical; conditions: 10 panelists
Excerpt: as §2, §3

[7] = Stability Test-2: coloration of cream stored at 50° C.; type: physicochemical; conditions: 10 panelists
Excerpt: • Evaluation was made by 10 panelists according to the following criteria. • 3: Almost no change compared to immediately after preparation. • 2: Color changes compared to immediately after preparation. • 1: Strongly colored compared to immediately after preparation. • Based on the results of the above evaluation, the following classification was made:
as §3

[8] = pH 3, 50° C., after 2 weeks, 1% aqueous solution, read-out: Residual Rate
[9] = pH 3, 50° C., 1% aqueous solution
[10] = pH 5, 50° C., after 2 weeks, 1% aqueous solution, read-out: Residual Rate
[11] = pH 5, 50° C., 1% aqueous solution
[12] = pH 7, 50° C., after 2 weeks, 1% aqueous solution, read-out: Residual Rate
[13] = pH 7, 50° C., 1% aqueous solution
[14] = pH 8, 50° C., after 2 weeks, 1% aqueous solution, read-out: Residual Rate
[15] = pH 8, 50° C., 1% aqueous solution
[16] = pH 9, 50° C., after 2 weeks, 1% aqueous solution, read-out: Residual Rate
[17] = pH 9, 50° C., 1% aqueous solution
[18] = cream pH 7, 50° C., after 2 weeks, 20160 min
[19] = cream pH 7, 50° C., after 4 weeks, 40320 min
[20] = cream pH 9, 50° C., after 2 weeks, 20160 min
[21] = cream pH 9, 50° C., after 4 weeks, 40320 min

Row | SMILES | remaining at 336 h [2, 8] | remaining at 672 h [2, 9] | remaining at 336 h [2, 10] | remaining at 672 h [2, 11] | remaining at 336 h [2, 12] | remaining at 672 h [2, 13] | remaining at 336 h [2, 14] | remaining at 672 h [2, 15] | remaining at 336 h [2, 16] | Residual Rate [5, 18] | Residual Rate [5, 19] | Residual Rate [5, 20] | Residual Rate [5, 21] | Odor ([6]; after 4 weeks) | Coloration ([1]; after 2 weeks) | Coloration ([1]; after 4 weeks) | Hyaluronic acid production-promoting effect [4] | Odor ([6]; after 2 weeks) | Coloration ([7]; after 2 weeks) | Coloration ([7]; after 4 weeks) | other results
1 | O=C1OC(C(O)CO)C2=C1OCCO2 (stereo not shown) [Synthesis Example 1, 2,3-O-(1,2-ethanediyl) ascorbic acid] | ≥ 80% | ≥ 80% | ≥ 80% | ≥ 80% | 50 to 80% | 30 to 50% | 30 to 50% | < 30% | < 30% |  |  |  |  |  | ∘ (Total score of 10 panelists is 25 or more) | Δ (Total score of 10 panelists is 16-24) |  |  |  |  | remaining at 672 h [2, 17]: < 30%; Odor ([3]; after 2 weeks): ∘ (Total score of 10 panelists is 25 or more); Odor ([3]; after 4 weeks): ∘ (Total score of 10 panelists is 25 or more)
2 | CCCC(=O)OCC(O)C1OC(=O)C2=C1OCCCO2 (stereo not shown) [Synthesis Example 20, 6-O-butanoyl-2,3-O-(1,3-propanediyl) ascorbic acid] |  |  |  |  |  |  |  |  |  | ⊚ (95% or more) | ⊚ (95% or more) | ⊚ (95% or more) | ⊚ (95% or more) | Δ (Total score of 10 panelists is 16-24) |  |  | ++ (120%<) | ◯ (Total score of 10 panelists is 25 or more) | ◯ (Total score of 10 panelists is 25 or more) | ◯ (Total score of 10 panelists is 25 or more) | 
3 | CCCCCCCCCCCC(=O)OCC(O)C1OC(=O)C2=C1OCCCO2 (stereo not shown) [Synthesis Example 24, 6-O-lauroyl-2,3-O-(1,3-propanediyl) ascorbic acid] |  |  |  |  |  |  |  |  |  | ⊚ (95% or more) | ⊚ (95% or more) | ⊚ (95% or more) | ⊚ (95% or more) | Δ (Total score of 10 panelists is 16-24) |  |  | ++ (120%<) | ◯ (Total score of 10 panelists is 25 or more) | ◯ (Total score of 10 panelists is 25 or more) | ◯ (Total score of 10 panelists is 25 or more) | 
4 | CCCCCCCCCCCC(=O)OCC(OC(=O)CCCCCCCCCCC)C1OC(=O)C2=C1OCCCO2 (stereo not shown) [Synthesis Example 25, 5,6-O-dilauroyl-2,3-O-(1,3-propanediyl) ascorbic acid] |  |  |  |  |  |  |  |  |  | ⊚ (95% or more) | ⊚ (95% or more) | ⊚ (95% or more) | ⊚ (95% or more) | Δ (Total score of 10 panelists is 16-24) |  |  | ++ (120%<) | ◯ (Total score of 10 panelists is 25 or more) | ◯ (Total score of 10 panelists is 25 or more) | Δ (Total score of 10 panelists is 16-24) | 

Second part, led by results:

Row | remaining at 336 h [2, 8] | remaining at 672 h [2, 9] | remaining at 336 h [2, 10] | remaining at 672 h [2, 11] | remaining at 336 h [2, 12] | remaining at 672 h [2, 13] | remaining at 336 h [2, 14] | remaining at 672 h [2, 15] | remaining at 336 h [2, 16] | Residual Rate [5, 18] | Residual Rate [5, 19] | Residual Rate [5, 20] | Residual Rate [5, 21] | Odor ([6]; after 4 weeks) | SMILES | Coloration ([1]; after 2 weeks) | Coloration ([1]; after 4 weeks) | Hyaluronic acid production-promoting effect [4] | Odor ([6]; after 2 weeks) | Coloration ([7]; after 2 weeks) | Coloration ([7]; after 4 weeks) | other results
5 | ≥ 80% | ≥ 80% | ≥ 80% | ≥ 80% | 50 to 80% | 30 to 50% | 50 to 80% | 30 to 50% | 50 to 80% |  |  |  |  |  | O=C1OC(C(O)CO)C2=C1OC(CO)CO2 (stereo not shown) [Synthesis Example 5, 2,3-O-(1-hydroxymethyl-1,2-ethanediyl) ascorbic acid] | ∘ (Total score of 10 panelists is 25 or more) | ∘ (Total score of 10 panelists is 25 or more) |  |  |  |  | remaining at 672 h [2, 17]: 30 to 50%; Odor ([3]; after 2 weeks): ∘ (Total score of 10 panelists is 25 or more); Odor ([3]; after 4 weeks): ∘ (Total score of 10 panelists is 25 or more)
6 | ≥ 80% | ≥ 80% | ≥ 80% | ≥ 80% | ≥ 80% | ≥ 80% | ≥ 80% | 50 to 80% | 50 to 80% |  |  |  |  |  | O=C1OC(C(O)CO)C2=C1OCCCCO2 (stereo not shown) [Synthesis Example 3, 2,3-O-(1,4-butanediyl) ascorbic acid] | ∘ (Total score of 10 panelists is 25 or more) | ∘ (Total score of 10 panelists is 25 or more) |  |  |  |  | remaining at 672 h [2, 17]: 30 to 50%; Odor ([3]; after 2 weeks): ∘ (Total score of 10 panelists is 25 or more); Odor ([3]; after 4 weeks): ∘ (Total score of 10 panelists is 25 or more)
7 | 50 to 80% | 30 to 50% | 50 to 80% | < 30% | < 30% | < 30% | < 30% | < 30% | < 30% |  |  |  |  |  | O=C1O[C@H]([C@@H](O)CO)C(O)=C1O [Ascorbic acid] | Δ (Total score of 10 panelists is 16-24) | x (The total score of 10 panelists is 15 or less) | ± (<100%) |  |  |  | remaining at 336 h ([2]; pH 7 to 9, 50° C., after two weeks, read-out: residual rates): < 30%; remaining at 672 h [2, 17]: < 30%; Odor ([3]; after 2 weeks): Δ (Total score of 10 panelists is 16-24); Odor ([3]; after 4 weeks): x (The total score of 10 panelists is 15 or less)
8 |  |  |  |  |  |  |  |  |  | ⊚ (95% or more) | ⊚ (95% or more) | ⊚ (95% or more) | ⊚ (95% or more) | Δ (Total score of 10 panelists is 16-24) | CCCCCCCC(=O)OCC(O)C1OC(=O)C2=C1OCCCO2 (stereo not shown) [Synthesis Example 22, 6-O-octanoyl-2,3-O-(1,3-propanediyl) ascorbic acid] |  |  | ++ (120%<) | ◯ (Total score of 10 panelists is 25 or more) | ◯ (Total score of 10 panelists is 25 or more) | ◯ (Total score of 10 panelists is 25 or more) | 
9 |  |  |  |  |  |  |  |  |  | ⊚ (95% or more) | ⊚ (95% or more) | ⊚ (95% or more) | ⊚ (95% or more) | Δ (Total score of 10 panelists is 16-24) | CC(C)CCCCCCCCCCCCCCC(=O)OC[C@H](OC(=O)CCCCCCCCCCCCCCC(C)C)[C@H]1OC(=O)C2=C1OCCCCO2 [Synthesis Example 18, 5,6-O-diisostearoyl-2,3-O-(1,4-butanediyl) ascorbic acid] |  |  | ++ (120%<) | ◯ (Total score of 10 panelists is 25 or more) | ◯ (Total score of 10 panelists is 25 or more) | ◯ (Total score of 10 panelists is 25 or more) | 
10 |  |  |  |  |  |  |  |  |  | ⊚ (95% or more) | ⊚ (95% or more) | ⊚ (95% or more) | ⊚ (95% or more) | Δ (Total score of 10 panelists is 16-24) | CCCC(=O)OCC(O)C1OC(=O)C2=C1OCCCCO2 (stereo not shown) [Synthesis Example 9, 6-O-butanoyl-2,3-O-(1,4-butanediyl) ascorbic acid] |  |  | ++ (120%<) | ◯ (Total score of 10 panelists is 25 or more) | ◯ (Total score of 10 panelists is 25 or more) | ◯ (Total score of 10 panelists is 25 or more) | 

From patent US20260294769A1, “ASCORBIC ACID DERIVATIVES AND COSMETIC THEREOF” (SEIWA KASEI COMPANY, LIMITED, priority 2023, published 2026)
